Assay results reported in ChEMBL document CHEMBL5365481, “Design, Synthesis, and Activity Evaluation of Novel Dual-Target Inhibitors with Antifungal and Immunoregulatory Properties” (J Med Chem, 2023).
Values after ≈ are worked out from the molar mass of the structure shown. Each block holds one molecule with its values, some of them ahead of it. Active and inactive are the calls of the source. The rule behind the calls is not given here.

Assays:
[1] = tested on: Candida albicans; test: Antifungal activity against Candida albicans ATCC SC5314 assessed as inhibition of fungal growth incubated for 72 hrs by CLSI based liquid medium microdilution method; type: functional
[2] = tested on: Cryptococcus neoformans; test: Antifungal activity against Cryptococcus neoformans ZKCC 2209 assessed as inhibition of fungal growth incubated for 72 hrs by CLSI based liquid medium microdilution method; type: functional
[3] = tested on: Pichia kudriavzevii; test: Antifungal activity against Candida krusei ATCC 6258 assessed as inhibition of fungal growth incubated for 72 hrs by CLSI based liquid medium microdilution method; type: functional
[4] = tested on: Candida tropicalis; test: Antifungal activity against Candida tropicalis ATCC 1369 assessed as inhibition of fungal growth incubated for 72 hrs by CLSI based liquid medium microdilution method; type: functional
[5] = tested on: Aspergillus fumigatus; test: Antifungal activity against Aspergillus fumigatus KM8001 assessed as inhibition of fungal growth incubated for 72 hrs by CLSI based liquid medium microdilution method; type: functional
[6] = tested on: Candida albicans; test: Antifungal activity against fluconazole-resistant Candida albicans CaR assessed as inhibition of fungal growth incubated for 72 hrs by CLSI based liquid medium microdilution method; type: functional
[7] = tested on: Candida albicans; test: Antifungal activity against fluconazole-resistant Candida albicans 17# assessed as inhibition of fungal growth incubated for 72 hrs by CLSI based liquid medium microdilution method; type: functional
[8] = tested on: Candida albicans; test: Antifungal activity against fluconazole-resistant Candida albicans 632 assessed as inhibition of fungal growth incubated for 72 hrs by CLSI based liquid medium microdilution method; type: functional
[9] = tested on: Candida albicans; test: Antifungal activity against fluconazole-resistant Candida albicans 901 assessed as inhibition of fungal growth incubated for 72 hrs by CLSI based liquid medium microdilution method; type: functional
[10] = tested on: Candida albicans; test: Antifungal activity against fluconazole-resistant Candida albicans 904 assessed as inhibition of fungal growth incubated for 72 hrs by CLSI based liquid medium microdilution method; type: functional
[11] = molecular target: Programmed cell death protein 1/Programmed cell death 1 ligand 1 (Homo sapiens, UniProt Q9NZQ7); test: Inhibition of PD-1/PD-L1 interaction (unknown origin) incubated for 15 mins by ELISA; type: protein-complex assay
Programmed cell death protein 1/Programmed cell death 1 ligand 1, sequence (Q15116 whole entry): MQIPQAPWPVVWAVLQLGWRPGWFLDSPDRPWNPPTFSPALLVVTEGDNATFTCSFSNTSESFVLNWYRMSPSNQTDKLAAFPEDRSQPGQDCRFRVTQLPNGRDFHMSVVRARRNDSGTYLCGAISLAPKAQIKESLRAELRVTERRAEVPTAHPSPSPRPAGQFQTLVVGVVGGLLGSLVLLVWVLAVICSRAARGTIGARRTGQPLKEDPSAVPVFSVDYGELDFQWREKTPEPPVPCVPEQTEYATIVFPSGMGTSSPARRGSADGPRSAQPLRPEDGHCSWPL
Programmed cell death protein 1/Programmed cell death 1 ligand 1, sequence (Q9NZQ7 whole entry): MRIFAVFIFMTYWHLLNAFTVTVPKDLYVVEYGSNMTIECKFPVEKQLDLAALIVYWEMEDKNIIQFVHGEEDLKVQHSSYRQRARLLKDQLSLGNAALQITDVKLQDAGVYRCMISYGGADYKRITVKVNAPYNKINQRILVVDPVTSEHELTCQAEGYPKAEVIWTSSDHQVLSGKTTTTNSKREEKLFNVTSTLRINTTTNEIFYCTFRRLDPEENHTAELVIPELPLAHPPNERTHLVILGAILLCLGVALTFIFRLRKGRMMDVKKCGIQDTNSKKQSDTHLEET

[12] = molecular target: T1, Lanosterol 14-alpha demethylase (Candida albicans (strain SC5314 / ATCC MYA-2876) (Yeast), UniProt P10613); test: Inhibition of Candida albicans ATCC SC5314 CYP51 using lanosterol as substrate incubated for 30 mins by HPLC assay
T1 sequence (P10613 whole entry): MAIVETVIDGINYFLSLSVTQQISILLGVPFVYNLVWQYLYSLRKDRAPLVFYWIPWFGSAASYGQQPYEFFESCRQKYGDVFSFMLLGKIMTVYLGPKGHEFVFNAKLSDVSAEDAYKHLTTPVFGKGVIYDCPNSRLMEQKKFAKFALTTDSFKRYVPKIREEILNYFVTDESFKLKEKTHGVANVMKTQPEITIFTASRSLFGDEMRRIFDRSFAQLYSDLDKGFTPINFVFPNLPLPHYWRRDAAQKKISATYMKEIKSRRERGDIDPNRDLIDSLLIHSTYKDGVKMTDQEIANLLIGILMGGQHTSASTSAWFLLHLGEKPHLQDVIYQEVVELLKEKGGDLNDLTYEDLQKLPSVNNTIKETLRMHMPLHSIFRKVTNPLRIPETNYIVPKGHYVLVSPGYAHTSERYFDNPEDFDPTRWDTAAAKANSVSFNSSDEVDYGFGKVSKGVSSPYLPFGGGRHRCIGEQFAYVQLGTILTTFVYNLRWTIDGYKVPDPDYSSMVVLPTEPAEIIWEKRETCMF

[13] = molecular target: Programmed cell death 1 ligand 1 (Homo sapiens, UniProt Q9NZQ7); test: Binding affinity to PD-L1 (unknown origin) assessed as dissociation constant by SPR analysis
Programmed cell death 1 ligand 1, sequence (Q9NZQ7 whole entry): as the sequence (Q9NZQ7 whole entry) above

[14] = molecular target: T1, Lanosterol 14-alpha demethylase; test: Inhibition of Candida albicans ATCC SC5314 CYP51 assessed as ergosterol content at 4 ug/ml measured after 16 hrs by GC-MS analysis (reference value: 92.71%); parameters: scale not given: the % may be the effect or the level left; conditions: at 4 µg/mL
[15] = molecular target: T1, Lanosterol 14-alpha demethylase; test: Inhibition of Candida albicans ATCC SC5314 CYP51 assessed as lanosterol content at 4 ug/ml measured after 16 hrs by GC-MS analysis relative to control; parameters: scale not given: the % may be the effect or the level left; conditions: at 4 µg/mL
[16] = molecular target: T1, Lanosterol 14-alpha demethylase; test: Inhibition of Candida albicans ATCC SC5314 CYP51 assessed as eburicol content at 4 ug/ml measured after 16 hrs by GC-MS analysis (Rvb= 3.47%); parameters: scale not given: the % may be the effect or the level left; conditions: at 4 µg/mL
[17] = molecular target: T1, Lanosterol 14-alpha demethylase; test: Inhibition of Candida albicans ATCC SC5314 CYP51 assessed as other unknown sterol content at 4 ug/ml measured after 16 hrs by GC-MS analysis (Rvb= 3.82%); parameters: scale not given: the % may be the effect or the level left; conditions: at 4 µg/mL
[18] = tested on: Candida albicans; test: Antifungal activity against Candida albicans ATCC SC5314 assessed as decrease in fungal cell density at 1 microM/ml incubated for 48 hrs by absorbance based assay; type: functional, organism-based
[19] = tested on: Candida albicans; test: Antifungal activity against Candida albicans ATCC SC5314 assessed as change in osmotic pressure at 1 microM/ml incubated for 48 hrs by absorbance based assay; type: functional, organism-based
[20] = tested on: Candida albicans; test: Antifungal activity against Candida albicans ATCC SC5314 assessed as change in structural stability at 1 microM/ml incubated for 48 hrs by absorbance based assay; type: functional, organism-based
[21] = tested on: Candida albicans; test: Induction of ROS generation in Candida albicans ATCC SC5314 assessed as increase in fluorescence intensity at 1 microM/ml incubated for 48 hrs by fluorescent microscopy; type: functional, organism-based
[22] = tested on: Candida albicans; test: Induction of mitochondrial membrane depolarization in Candida albicans ATCC SC5314 assessed as polarized cells at 1 microM/ml incubated for 24 hrs by JC-1 staining based flow cytometry assay (reference value: 0.28 +/- 0.02%); type: functional
[23] = tested on: Candida albicans; test: Induction of mitochondrial membrane depolarization in Candida albicans ATCC SC5314 assessed as normal cells at 1 microM/ml incubated for 24 hrs by JC-1 staining based flow cytometry assay (reference value: 94.4 +/- 1.15%); type: functional
[24] = tested on: Candida albicans; test: Induction of mitochondrial membrane depolarization in Candida albicans ATCC SC5314 assessed as depolarized cells at 1 microM/ml incubated for 24 hrs by JC-1 staining based flow cytometry assay (reference value: 0.3 to 5.1%); type: functional
[25] = tested on: Candida albicans; test: Induction of apoptosis in Candida albicans ATCC SC5314 assessed as increase in blue fluorescence intensity at 1 microM/ml incubated for 48 hrs by Hoechst 33258/PI staining based fluorescence microscopy; type: functional, organism-based
[26] = tested on: Candida albicans; test: Induction of apoptosis in Candida albicans ATCC SC5314 assessed as normal cells at 1 microM/ml incubated for 48 hrs by Hoechst 33258/PI staining based flow cytometry (Rvb= 94.8 +/- 0.3%); type: functional
[27] = tested on: Candida albicans; test: Induction of apoptosis in Candida albicans ATCC SC5314 assessed as early apoptotic cells at 1 microM/ml incubated for 48 hrs by Hoechst 33258/PI staining based flow cytometry (Rvb= 5.1 +/- 0.3%); type: functional
[28] = tested on: Candida albicans; test: Induction of apoptosis in Candida albicans ATCC SC5314 assessed as late apoptotic cells at 1 microM/ml incubated for 48 hrs by Hoechst 33258/PI staining based flow cytometry (Rvb= 0.05 +/- 0.01%); type: functional
[29] = tested on: Candida albicans; test: Induction of apoptosis in Candida albicans ATCC SC5314 assessed as necrotic cells at 1 microM/ml incubated for 48 hrs by Hoechst 33258/PI staining based flow cytometry (Rvb= 0.03 +/- 0.01%); type: functional
[30] = tested on: Candida albicans; test: In vivo antifungal activity against Candida albicans ATCC SC5314 infected in BALB/c mouse assessed as decrease in COX2 expression level at 10 ug, ip for 14 days by Western blot analysis; type: functional, organism-based; conditions: dose 10.0 µg, time 14.0 day
[31] = tested on: Candida albicans; test: In vivo antifungal activity against Candida albicans ATCC SC5314 infected in BALB/c mouse assessed as decrease in NLRP3 expression level at 10 ug, ip for 14 days by Western blot analysis; type: functional, organism-based; conditions: dose 10.0 µg, time 14.0 day
[32] = tested on: Candida albicans; test: In vivo antifungal activity against Candida albicans ATCC SC5314 infected in BALB/c mouse assessed as decrease in IFN-gamma expression level at 10 ug, ip for 14 days by Western blot analysis; type: functional, organism-based; conditions: dose 10.0 µg, time 14.0 day
[33] = tested on: Candida albicans; test: In vivo antifungal activity against Candida albicans ATCC SC5314 infected in BALB/c mouse assessed as decrease in PD-L1 expression level at 10 ug, ip for 14 days by Western blot analysis; type: functional, organism-based; conditions: dose 10.0 µg, time 14.0 day

SMILES: O=C(NC1CCN(C(=O)c2ccccc2)CC1)c1nc(-n2ccnc2)c2ccccc2n1
MIC50 [1]: 1 mg/L (≈ 2.34 µM)
MIC50 [2]: 2 mg/L (≈ 4.69 µM)
MIC50 [3]: 2 mg/L (≈ 4.69 µM)
MIC50 [4]: 1 mg/L (≈ 2.34 µM)
MIC50 [5]: > 8 mg/L

SMILES: CC(=O)c1ccc(NC(=O)c2nc(-n3ccnc3)c3cc(Cl)ccc3n2)cc1
MIC50 [1]: 1 mg/L (≈ 2.55 µM)
MIC50 [2]: 2 mg/L (≈ 5.1 µM)
MIC50 [3]: 4 mg/L (≈ 10.2 µM)
MIC50 [4]: 1 mg/L (≈ 2.55 µM)
MIC50 [5]: > 8 mg/L

SMILES: CC(C)c1ccc(C(=O)N2CCC(NC(=O)c3nc(-n4cncn4)c4ccccc4n3)CC2)cc1
MIC50 [1]: 0.5 mg/L (≈ 1.06 µM)
MIC50 [2]: 2 mg/L (≈ 4.26 µM)
MIC50 [3]: 0.5 mg/L (≈ 1.06 µM)
MIC50 [4]: 1 mg/L (≈ 2.13 µM)
MIC50 [5]: 4 mg/L (≈ 8.52 µM)

SMILES: CC(=O)c1ccc(NC(=O)c2nc(-n3ccnc3)c3ccccc3n2)cc1
MIC50 [1]: 0.5 mg/L (≈ 1.4 µM)
MIC50 [2]: 1 mg/L (≈ 2.8 µM)
MIC50 [3]: 1 mg/L (≈ 2.8 µM)
MIC50 [4]: 1 mg/L (≈ 2.8 µM)
MIC50 [5]: 2 mg/L (≈ 5.6 µM)
MIC50 [6]: 4 mg/L (≈ 11.2 µM)
MIC50 [7]: 2 mg/L (≈ 5.6 µM)
MIC50 [8]: 2 mg/L (≈ 5.6 µM)
MIC50 [9]: > 8 mg/L
MIC50 [10]: 4 mg/L (≈ 11.2 µM)
IC50 [11]: 0.083 µM
IC50 [12]: 0.884 µM
Kd [13]: 0.0345 µM
Activity [14]: 21.53%
Activity [15]: 20.64%
Activity [16]: 41.69%
Activity [17]: 6.14%
Activity [18]: Active
Activity [19]: Active
Activity [20]: Active
Activity [21]: Active
Activity [22]: 0.07%
Activity [23]: 77.1%
Activity [24]: 0.16%
Activity [25]: Active
Activity [26]: 55.1%
Activity [27]: 44.8%
Activity [28]: 0.13%
Activity [29]: 0.03%
Activity [30]: Active
Activity [31]: Active
Activity [32]: Active
Activity [33]: Active

SMILES: COc1ccc(C(=O)N2CCC(NC(=O)c3nc(-n4cncn4)c4ccccc4n3)CC2)cc1
MIC50 [1]: 0.5 mg/L (≈ 1.09 µM)
MIC50 [2]: 1 mg/L (≈ 2.19 µM)
MIC50 [3]: 0.5 mg/L (≈ 1.09 µM)
MIC50 [4]: 0.5 mg/L (≈ 1.09 µM)
MIC50 [5]: 2 mg/L (≈ 4.37 µM)

SMILES: O=C(NC1CCCc2ccccc21)c1nc(-n2ccnc2)c2cc(Cl)ccc2n1 (stereo not drawn)
MIC50 [1]: > 8 mg/L
MIC50 [2]: 2 mg/L (≈ 4.95 µM)
MIC50 [3]: 4 mg/L (≈ 9.9 µM)
MIC50 [4]: 4 mg/L (≈ 9.9 µM)
MIC50 [5]: > 8 mg/L

SMILES: CS(=O)(=O)c1ccc(NC(=O)c2nc(-n3ccnc3)c3ccccc3n2)cc1
MIC50 [1]: 2 mg/L (≈ 5.08 µM)
MIC50 [2]: 1 mg/L (≈ 2.54 µM)
MIC50 [3]: 4 mg/L (≈ 10.2 µM)
MIC50 [4]: 4 mg/L (≈ 10.2 µM)
MIC50 [5]: > 8 mg/L

The next lines start with the values.

MIC50 [1]: 2 mg/L (≈ 5.5 µM)
MIC50 [2]: 4 mg/L (≈ 11 µM)
MIC50 [3]: 1 mg/L (≈ 2.75 µM)
MIC50 [4]: 2 mg/L (≈ 5.5 µM)
MIC50 [5]: 4 mg/L (≈ 11 µM)
SMILES: O=C(NCc1ccccc1)c1nc(-n2ccnc2)c2cc(Cl)ccc2n1

MIC50 [1]: 2 mg/L (≈ 5.4 µM)
MIC50 [2]: 4 mg/L (≈ 10.8 µM)
MIC50 [3]: 2 mg/L (≈ 5.4 µM)
MIC50 [4]: 1 mg/L (≈ 2.7 µM)
MIC50 [5]: > 8 mg/L
SMILES: O=C(NC1CCCc2ccccc21)c1nc(-n2cncn2)c2ccccc2n1 (stereo not drawn)

MIC50 [1]: 2 mg/L (≈ 6.05 µM)
MIC50 [2]: 2 mg/L (≈ 6.05 µM)
MIC50 [3]: 4 mg/L (≈ 12.1 µM)
MIC50 [4]: 1 mg/L (≈ 3.03 µM)
MIC50 [5]: > 8 mg/L
SMILES: O=C(NCc1ccccc1)c1nc(-n2cncn2)c2ccccc2n1

MIC50 [1]: 2 mg/L (≈ 4.94 µM)
MIC50 [2]: 2 mg/L (≈ 4.94 µM)
MIC50 [3]: > 8 mg/L
MIC50 [4]: 2 mg/L (≈ 4.94 µM)
MIC50 [5]: > 8 mg/L
SMILES: O=C(NC1CCCc2ccccc21)c1nc(-n2cncn2)c2cc(Cl)ccc2n1 (stereo not drawn)
